Source: US12077503B2, “Substituted cyclic amides and their use as herbicides” (FMC CORPORATION, priority 2015, dated 2024)

Assays:
Assay type in all cases: in vivo
[1] = test system: giant foxtail (Setaria faberi); test: Test G Post-Emergence Protocol; conditions: Setaria faberi, post-emergence, 312 h; for pest or weed control at 15.625 g/ha: 15.625 g ai/ha, evaluated after 13 days (100=total damage to plant; 0=no damage to plant), read-out: Foxtail, Giant damage rating; for pest or weed control at 62.5 g/ha: 62.5 g ai/ha, read-out: Foxtail, Giant damage rating (100=total damage to plant; 0=no damage to plant); for pest or weed control at 62.5 g/ha / pest or weed control at 250 g/ha: evaluated after 13 days; for pest or weed control at 250 g/ha: 250 g ai/ha, read-out: damage to plant, Foxtail, Giant (100=total damage to plant; 0=no damage to plant)
How it was run: (§1)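 Eight days post-sowing, plants received a spray of test compound (acetone/water 50:50, 0.5% Tween 20) at 15.625, 62.5 or 250 g/ha. Glasshouse regime thereafter: 24/16 °C, 14 h light, 65% humidity. Assessment after 13 days on a 0–100 damage scale.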

[2] = test system: redroot pigweed (Amaranthus retroflexus); test: Test G Post-Emergence Protocol; conditions: Amaranthus retroflexus, post-emergence, 312 h; for pest or weed control at 15.625 g/ha: 15.625 g ai/ha, evaluated after 13 days (100=total damage to plant; 0=no damage to plant), read-out: Pigweed, Redroot damage rating; for pest or weed control at 62.5 g/ha: 62.5 g ai/ha, read-out: Pigweed, Redroot damage rating (100=total damage to plant; 0=no damage to plant); for pest or weed control at 62.5 g/ha / pest or weed control at 250 g/ha: evaluated after 13 days; for pest or weed control at 250 g/ha: 250 g ai/ha, read-out: damage to plant, Pigweed, Redroot (100=total damage to plant; 0=no damage to plant)
How it was run: as §1

[3] = test system: barnyardgrass (Echinochloa crus-galli); test: Test G Post-Emergence Protocol; conditions: Echinochloa crus-galli, post-emergence, 312 h; for pest or weed control at 15.625 g/ha: 15.625 g ai/ha, evaluated after 13 days (100=total damage to plant; 0=no damage to plant), read-out: Barnyardgrass damage rating; for pest or weed control at 62.5 g/ha: 62.5 g ai/ha, read-out: Barnyardgrass damage rating (100=total damage to plant; 0=no damage to plant); for pest or weed control at 62.5 g/ha / pest or weed control at 250 g/ha: evaluated after 13 days; for pest or weed control at 250 g/ha: 250 g ai/ha, read-out: damage to plant, Barnyardgrass (100=total damage to plant; 0=no damage to plant)
How it was run: as §1

corn (Zea mays) [4] = test: Test G Post-Emergence Protocol; conditions: Zea mays, post-emergence, 312 h; for plant injury at 15.625 g/ha: 15.625 g ai/ha, evaluated after 13 days (100=total damage to plant; 0=no damage to plant), read-out: Corn damage rating; for plant injury at 62.5 g/ha: 62.5 g ai/ha, read-out: Corn damage rating (100=total damage to plant; 0=no damage to plant); for plant injury at 62.5 g/ha / plant injury at 250 g/ha: evaluated after 13 days; for plant injury at 250 g/ha: 250 g ai/ha, read-out: damage to plant, Corn (100=total damage to plant; 0=no damage to plant)
How it was run: as §1

[5] = test system: ivy-leaved morning glory (Ipomoea hederacea); test: Test G Post-Emergence Protocol; conditions: Ipomoea, post-emergence, 312 h; for pest or weed control at 15.625 g/ha: 15.625 g ai/ha, evaluated after 13 days (100=total damage to plant; 0=no damage to plant), read-out: Morningglory, Ivy-leaved damage rating; for pest or weed control at 62.5 g/ha: 62.5 g ai/ha, read-out: Morningglory, Ivy-leaved damage rating (100=total damage to plant; 0=no damage to plant); for pest or weed control at 62.5 g/ha / pest or weed control at 250 g/ha: evaluated after 13 days; for pest or weed control at 250 g/ha: 250 g ai/ha, read-out: damage to plant, Morningglory, Ivy-leaved (100=total damage to plant; 0=no damage to plant)
How it was run: as §1

[6] = test system: velvetleaf (Abutilon theophrasti); test: Test G Post-Emergence Protocol; conditions: Abutilon theophrasti, post-emergence, 312 h; for pest or weed control at 15.625 g/ha: 15.625 g ai/ha, evaluated after 13 days (100=total damage to plant; 0=no damage to plant), read-out: Velvetleaf damage rating; for pest or weed control at 62.5 g/ha: 62.5 g ai/ha, read-out: Velvetleaf damage rating (100=total damage to plant; 0=no damage to plant); for pest or weed control at 62.5 g/ha / pest or weed control at 250 g/ha: evaluated after 13 days; for pest or weed control at 250 g/ha: 250 g ai/ha, read-out: damage to plant, Velvetleaf (100=total damage to plant; 0=no damage to plant)
How it was run: as §1

[7] = test system: giant foxtail (Setaria faberi); test: Test G Pre-Emergence Protocol; conditions: Setaria faberi, pre-emergence, 312 h, evaluated after 13 days; for pest or weed control at 15.625 g/ha: 15.625 g ai/ha; for pest or weed control at 15.625 g/ha / pest or weed control at 250 g/ha: read-out: Foxtail, Giant damage rating (100=total damage to plant; 0=no damage to plant); for pest or weed control at 62.5 g/ha: 62.5 g ai/ha, 100=total damage to plant, 0=no damage to plant, read-out: plant damage rating, Foxtail, Giant; for pest or weed control at 250 g/ha: 250 g ai/ha
How it was run: (§2)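 Visual injury (0–100) at day 13 after a single pre-emergence spray. Rates: 15.625, 62.5, 250 g/ha in acetone–water 50:50 with 0.5% Tween 20. Growth conditions: 24/16° C, 14 h light, 65% humidity.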

[8] = test system: redroot pigweed (Amaranthus retroflexus); test: Test G Pre-Emergence Protocol; conditions: Amaranthus retroflexus, pre-emergence, 312 h, evaluated after 13 days; for pest or weed control at 15.625 g/ha: 15.625 g ai/ha; for pest or weed control at 15.625 g/ha / pest or weed control at 250 g/ha: read-out: Pigweed, Redroot damage rating (100=total damage to plant; 0=no damage to plant); for pest or weed control at 62.5 g/ha: 62.5 g ai/ha, 100=total damage to plant, 0=no damage to plant, read-out: plant damage rating, Pigweed, Redroot; for pest or weed control at 250 g/ha: 250 g ai/ha
How it was run: as §2

[9] = test system: barnyardgrass (Echinochloa crus-galli); test: Test G Pre-Emergence Protocol; conditions: Echinochloa crus-galli, pre-emergence, 312 h, evaluated after 13 days; for pest or weed control at 15.625 g/ha: 15.625 g ai/ha, read-out: Barnyard grass damage rating (100=total damage to plant; 0=no damage to plant); for pest or weed control at 62.5 g/ha: 62.5 g ai/ha, 100=total damage to plant, 0=no damage to plant, read-out: plant damage rating, Barnyardgrass; for pest or weed control at 250 g/ha: 250 g ai/ha, read-out: Barnyardgrass damage rating (100=total damage to plant; 0=no damage to plant)
How it was run: as §2

corn (Zea mays) [10] = test: Test G Pre-Emergence Protocol; conditions: Zea mays, pre-emergence, 312 h, evaluated after 13 days; for plant injury at 15.625 g/ha: 15.625 g ai/ha; for plant injury at 15.625 g/ha / plant injury at 250 g/ha: read-out: Corn damage rating (100=total damage to plant; 0=no damage to plant); for plant injury at 62.5 g/ha: 62.5 g ai/ha, 100=total damage to plant, 0=no damage to plant, read-out: plant damage rating, Corn; for plant injury at 250 g/ha: 250 g ai/ha
How it was run: as §2

[11] = test system: ivy-leaved morning glory (Ipomoea hederacea); test: Test G Pre-Emergence Protocol; conditions: Ipomoea, pre-emergence, 312 h, evaluated after 13 days; for pest or weed control at 15.625 g/ha: 15.625 g ai/ha, read-out: Morning-glory, Ivy-leaved damage rating (100=total damage to plant; 0=no damage to plant); for pest or weed control at 62.5 g/ha: 62.5 g ai/ha, 100=total damage to plant, 0=no damage to plant, read-out: plant damage rating, Morningglory, Ivy-leaved; for pest or weed control at 250 g/ha: 250 g ai/ha, read-out: Morningglory, Ivy-leaved damage rating (100=total damage to plant; 0=no damage to plant)
How it was run: as §2

[12] = test system: velvetleaf (Abutilon theophrasti); test: Test G Pre-Emergence Protocol; conditions: Abutilon theophrasti, pre-emergence, 312 h, evaluated after 13 days; for pest or weed control at 15.625 g/ha: 15.625 g ai/ha; for pest or weed control at 15.625 g/ha / pest or weed control at 250 g/ha: read-out: Velvetleaf damage rating (100=total damage to plant; 0=no damage to plant); for pest or weed control at 62.5 g/ha: 62.5 g ai/ha, 100=total damage to plant, 0=no damage to plant, read-out: plant damage rating, Velvetleaf; for pest or weed control at 250 g/ha: 250 g ai/ha
How it was run: as §2

Structure (SMILES) | pest or weed control at 15.625 g/ha [1] [%] | pest or weed control at 62.5 g/ha [1] [%] | pest or weed control at 250 g/ha [1] [%] | pest or weed control at 15.625 g/ha [2] [%] | pest or weed control at 62.5 g/ha [2] [%] | pest or weed control at 250 g/ha [2] [%] | pest or weed control at 15.625 g/ha [3] [%] | pest or weed control at 62.5 g/ha [3] [%] | pest or weed control at 250 g/ha [3] [%] | plant injury at 15.625 g/ha (corn (Zea mays) [4]) [%] | plant injury at 62.5 g/ha (corn (Zea mays) [4]) [%] | plant injury at 250 g/ha (corn (Zea mays) [4]) [%] | pest or weed control at 15.625 g/ha [5] [%] | pest or weed control at 62.5 g/ha [5] [%] | pest or weed control at 250 g/ha [5] [%] | pest or weed control at 15.625 g/ha [6] [%] | pest or weed control at 62.5 g/ha [6] [%] | pest or weed control at 250 g/ha [6] [%] | pest or weed control at 15.625 g/ha [7] [%] | pest or weed control at 62.5 g/ha [7] [%] | also measured
CN1C[C@@H](c2ccc(C(F)(F)F)cc2)[C@H](C(=O)Nc2nnc(C(F)(F)F)s2)C1=O (racemic) [Compound 1548] | 0 | 0 | 0 | 0 | 0 | 0 | 0 | 0 | 0 | 0 | 0 | 0 | 0 | 0 | 0 | 0 | 0 | 0 | 0 | 0 | pest or weed control at 250 g/ha [7]: 0%; pest or weed control at 15.625 g/ha [8]: 0%; pest or weed control at 62.5 g/ha [8]: 0%; pest or weed control at 250 g/ha [8]: 0%; pest or weed control at 15.625 g/ha [9]: 0%; pest or weed control at 62.5 g/ha [9]: 0%; pest or weed control at 250 g/ha [9]: 0%; plant injury at 15.625 g/ha (corn (Zea mays) [10]): 0%; plant injury at 62.5 g/ha (corn (Zea mays) [10]): 0%; plant injury at 250 g/ha (corn (Zea mays) [10]): 0%; pest or weed control at 15.625 g/ha [11]: 0%; pest or weed control at 62.5 g/ha [11]: 0%; pest or weed control at 250 g/ha [11]: 0%; pest or weed control at 15.625 g/ha [12]: 0%; pest or weed control at 62.5 g/ha [12]: 0%; pest or weed control at 250 g/ha [12]: 0%
CSc1nc(N)cc(NC(=O)[C@@H]2C(=O)N(C)C[C@H]2c2ccc(C(F)(F)F)cc2)n1 (racemic) [Compound 1644] | 0 | 20 | 30 | 0 | 0 | 0 | 0 | 0 | 20 | 0 | 0 | 0 | 0 | 10 | 40 | 0 | 0 | 0 | 0 | 0 | pest or weed control at 250 g/ha [7]: 0%; pest or weed control at 15.625 g/ha [8]: 0%; pest or weed control at 62.5 g/ha [8]: 0%; pest or weed control at 250 g/ha [8]: 0%; pest or weed control at 15.625 g/ha [9]: 0%; pest or weed control at 62.5 g/ha [9]: 0%; pest or weed control at 250 g/ha [9]: 0%; plant injury at 15.625 g/ha (corn (Zea mays) [10]): 0%; plant injury at 62.5 g/ha (corn (Zea mays) [10]): 0%; plant injury at 250 g/ha (corn (Zea mays) [10]): 0%; pest or weed control at 15.625 g/ha [11]: 0%; pest or weed control at 62.5 g/ha [11]: 0%; pest or weed control at 250 g/ha [11]: 0%; pest or weed control at 15.625 g/ha [12]: 0%; pest or weed control at 62.5 g/ha [12]: 0%; pest or weed control at 250 g/ha [12]: 0%
